# Substitutions are numbered along the chain they refer to.
# Tests used:
# [1] = biological target: T1, Y71V mutant EAG1 channels (Mus musculus, UniProt Q60603, Y71V); assay: TEVC recording, imipramine inhibition, Y71V mutant; assay type: cell-based; conditions: Y71V mutant EAG1 channel, +50 mV
# T1 construct: expressed in transfected cells; host or cells: Xenopus laevis oocytes injected with cRNA
# T1 sequence (Q60603 1-989 Y71V): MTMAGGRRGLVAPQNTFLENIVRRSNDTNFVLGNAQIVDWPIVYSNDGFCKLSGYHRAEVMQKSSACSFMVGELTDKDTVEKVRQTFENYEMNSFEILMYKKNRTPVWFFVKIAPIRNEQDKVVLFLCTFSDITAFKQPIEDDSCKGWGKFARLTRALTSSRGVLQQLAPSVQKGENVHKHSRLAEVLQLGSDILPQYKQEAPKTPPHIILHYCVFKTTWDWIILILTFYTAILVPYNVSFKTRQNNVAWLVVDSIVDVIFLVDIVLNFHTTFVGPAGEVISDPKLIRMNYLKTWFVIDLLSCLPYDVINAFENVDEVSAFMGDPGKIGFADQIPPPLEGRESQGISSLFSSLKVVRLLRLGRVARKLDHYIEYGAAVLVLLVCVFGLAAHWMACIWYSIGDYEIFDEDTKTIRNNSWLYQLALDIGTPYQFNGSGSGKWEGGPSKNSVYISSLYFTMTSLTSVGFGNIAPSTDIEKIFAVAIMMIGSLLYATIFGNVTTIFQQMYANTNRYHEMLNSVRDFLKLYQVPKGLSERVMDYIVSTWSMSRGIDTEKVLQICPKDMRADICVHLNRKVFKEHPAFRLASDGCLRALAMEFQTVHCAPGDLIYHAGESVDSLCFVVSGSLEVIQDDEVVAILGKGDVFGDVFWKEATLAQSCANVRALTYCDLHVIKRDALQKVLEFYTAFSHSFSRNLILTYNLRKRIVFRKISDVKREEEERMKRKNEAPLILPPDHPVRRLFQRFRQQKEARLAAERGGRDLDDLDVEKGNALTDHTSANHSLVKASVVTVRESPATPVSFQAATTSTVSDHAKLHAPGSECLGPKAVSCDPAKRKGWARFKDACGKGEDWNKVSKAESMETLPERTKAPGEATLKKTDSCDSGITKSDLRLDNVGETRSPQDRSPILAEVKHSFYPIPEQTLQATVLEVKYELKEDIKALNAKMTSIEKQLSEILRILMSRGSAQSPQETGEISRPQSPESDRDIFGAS
# Description: (§1) The cDNA encoding wild-type (WT) mouse EAG1 channels in pGH19 vector was kindly provided by G. Robertson (University of Wisconsin-Madison, Madison, WI). The mutant ΔPAS EAG1 channel in pGH19 with the deletion of the PAS domain residues 2 to 130 was generated by Bio Basic Inc and verified by DNA sequencing (Genewiz). Mutant EAG1 channels with single amino acid substitutions were generated by Genewiz and verified by DNA sequencing. cRNA was transcribed using the T7 mMessage mMachine kit (Thermo Fisher Scientific). Defolliculated Xenopus laevis oocytes were purchased from Ecocyte Bioscience or Xenopus1 and injected with the cRNA using a Nanoinject II oocyte injector (Drummond).
# (§2) For EAG1 current recordings, oocytes were placed into a handmade chamber containing a bath solution for the current recording. The currents were recorded using a TEVC technique with OC-725C amplifier (Warner Instruments) and pClamp11 software (Molecular Devices). The signals were digitized using Digidata 1550 (Molecular Devices). Patch pipettes were pulled from borosilicate glass and had resistances of 0.7 to 1.5 MΩ. The recording (bath) solution contained 96 mM NaCl, 4 mM KCl, 0.1 mM CaCl2, 1.8 mM MgCl2, and 5 mM HEPES, pH 7.5. The pipette solution contained 3 M KCl. […]
# [2] = biological target: T2, F130G mutant EAG1 channels (Mus musculus, UniProt Q60603, F130G); assay: TEVC recording, imipramine inhibition, F130G mutant; assay type: cell-based; conditions: F130G mutant EAG1 channel, +50 mV
# T2 construct: expressed in transfected cells; host or cells: Xenopus laevis oocytes injected with cRNA
# T2 sequence (Q60603 1-989 F130G): T1 sequence (Q60603 1-989 Y71V) with V71Y, F130G
# Description: as §1, §2
structure (smiles),measurement,setting,value
CN(C)CCCN1c2ccccc2CCc2ccccc21 [imipramine],IC50,[1],31.3 ± 1.8 µM
same,IC50,[2],52.8 ± 5 µM
